{"source": "patent US20250101038A1", "about": "“COMPOUNDS” (priority 2021, published 2025)", "key": {"[1]": {"target": "T1, 5-HT2A receptor (Homo sapiens, UniProt P28223)", "T1 construct": "host or cells: HEK293", "T1 sequence (P28223 whole entry)": "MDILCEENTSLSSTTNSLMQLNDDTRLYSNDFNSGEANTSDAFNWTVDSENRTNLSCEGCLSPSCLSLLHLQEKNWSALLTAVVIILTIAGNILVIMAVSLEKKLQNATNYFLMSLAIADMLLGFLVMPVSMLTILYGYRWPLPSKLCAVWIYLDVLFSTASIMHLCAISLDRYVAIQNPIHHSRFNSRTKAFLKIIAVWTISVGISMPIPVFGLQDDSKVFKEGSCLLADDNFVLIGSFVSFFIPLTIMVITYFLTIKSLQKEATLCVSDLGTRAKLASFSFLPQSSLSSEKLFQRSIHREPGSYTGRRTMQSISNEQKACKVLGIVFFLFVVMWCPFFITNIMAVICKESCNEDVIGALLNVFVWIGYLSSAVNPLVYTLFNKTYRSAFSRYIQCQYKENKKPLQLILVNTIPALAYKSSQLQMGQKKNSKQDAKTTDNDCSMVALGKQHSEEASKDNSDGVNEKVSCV", "test": "FLIPR Ca2+ flux functional assay, 5-HT2A", "type": "cell-based", "details": "agonist activity, Ca2+ flux, HEK293 cells"}, "[2]": {"target": "T2, 5-HT2C receptor (Homo sapiens, UniProt P28335)", "T2 construct": "host or cells: HEK293", "T2 sequence (P28335 33-458)": "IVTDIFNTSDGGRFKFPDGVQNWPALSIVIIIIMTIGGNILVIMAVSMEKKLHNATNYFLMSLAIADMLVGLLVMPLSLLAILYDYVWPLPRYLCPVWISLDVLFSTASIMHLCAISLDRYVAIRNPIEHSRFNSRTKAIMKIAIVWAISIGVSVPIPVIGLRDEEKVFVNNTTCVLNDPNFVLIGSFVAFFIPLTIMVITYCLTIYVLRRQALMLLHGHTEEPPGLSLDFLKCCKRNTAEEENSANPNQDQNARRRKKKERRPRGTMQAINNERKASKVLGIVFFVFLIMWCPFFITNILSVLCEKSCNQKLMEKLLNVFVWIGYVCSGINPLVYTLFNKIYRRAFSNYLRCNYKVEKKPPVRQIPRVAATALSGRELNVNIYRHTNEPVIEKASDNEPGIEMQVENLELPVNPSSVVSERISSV", "test": "cell-based", "details": "agonist activity, Ca2+ flux, HEK293 cells"}, "[3]": {"target": "T3, 5-HT2B receptor (Homo sapiens, UniProt P41595)", "T3 construct": "host or cells: CHO-K1", "T3 sequence (P41595 whole entry)": "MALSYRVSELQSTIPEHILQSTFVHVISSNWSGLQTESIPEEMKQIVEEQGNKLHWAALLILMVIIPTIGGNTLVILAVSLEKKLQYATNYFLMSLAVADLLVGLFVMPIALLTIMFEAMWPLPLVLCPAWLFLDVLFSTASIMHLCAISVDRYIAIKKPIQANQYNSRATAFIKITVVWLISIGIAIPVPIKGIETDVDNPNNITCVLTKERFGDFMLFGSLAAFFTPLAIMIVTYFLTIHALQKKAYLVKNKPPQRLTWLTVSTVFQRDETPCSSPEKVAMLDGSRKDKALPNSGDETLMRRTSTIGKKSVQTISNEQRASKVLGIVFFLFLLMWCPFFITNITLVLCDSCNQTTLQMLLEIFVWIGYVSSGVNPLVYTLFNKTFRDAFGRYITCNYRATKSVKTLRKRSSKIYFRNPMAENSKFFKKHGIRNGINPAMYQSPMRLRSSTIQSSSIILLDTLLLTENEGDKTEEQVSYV", "test": "cell-based", "details": "agonist activity, Ca2+ flux, CHO-K1 cells"}, "[4]": {"test": "In vivo pharmacokinetics, plasma and brain exposure after IP dosing", "set-up": "species or system male C57BL/6 mice", "description": "The systemic exposure of selected examples was studied in non-fasted male C57BL/6 mice weighing between 18.9-25.5 g. Mice had access to food and water ad libitum throughout the pre- and post-dose sampling period.\nOn the day of dosing, the formulation of each compound was prepared by dissolving solid compound in phosphate buffer saline (50 mM) using vortexing, creating colourless solutions (pH 6.4-6.5) for each compound.\nCompounds were dosed to mice by IP injection (10 mL/kg dose volume via a 27G needle; n=9 mice per compound) and blood samples were collected at 5 and 30 min; 1, 2 and 4 h post-dose (n=3 mice per time point for each compound). A maximum of three blood samples were obtained from each mouse, with plasma samples being taken via submandibular bleed (approximately 120 μL). Once collected, blood samples were centrifuged immediately, supernatant plasma was removed, and stored at −80° C. until analysis by LCMS. In addition, at the 5 and 30 min and 4 h post-dose time points, the whole brain was rapidly removed from the carcass soon after the blood collection. The whole brains were blotted to remove excess blood, placed into pre-weighed polypropylene vials, and weighed. The brains were snap frozen in dry ice and subsequently stored frozen (−80° C.) until analysis.\nConcentrations of test compound in plasma and tissue samples were determined using an LCMS/MS method validated for linearity, accuracy, precision, matrix factor and recovery (Table 2). Test compound standard solutions were diluted from a concentrated stock solution (32 mM in H2O) using 50% can in H2O (v/v) and a calibration curve was prepared in a matched matrix to the test samples.\nPlasma: The plasma calibration curve was prepared by spiking aliquots of blank mouse plasma (25 μL) with test compound standard solutions (5 μL) and internal standard solution (5 μL of diazepam, 5 μg/mL in 50% acetonitrile in water). Test plasma samples (25 μL) were thawed, mixed, and then spiked with internal standard solution (5 μL). Plasma protein precipitation was performed by addition of acetonitrile (3-fold volume ratio) and thorough vortex mixing. Samples were centrifuged (RCF=9391×g) for 3 minutes and the supernatant (90 μL) was collected for analysis.\nTissue: Pre-weighed tissue samples (brain) were homogenised using a glass rod in buffer containing an EDTA/potassium fluoride solution (0.1 M/4 mg/mL) as a stabilisation cocktail to minimise the potential for ex vivo degradation (3 mL cocktail/g tissue). The tissue homogenate was briefly centrifuged (RCF=79×g) for 10 seconds to separate the foam layer before transferring an aliquot of the tissue homogenate (200 μL) to a fresh Eppendorf tube for sample extraction. Calibration standards were prepared by spiking blank brain homogenate (200 μL) with the solution standards (10 μL) and the internal standard (10 μL). Study samples were similarly prepared, except that acetonitrile (10 μL) was added instead of solution standards to maintain the same volume. Protein precipitation was carried out by the addition of a 3-fold volume of acetonitrile, followed by vortex mixing and centrifugation (RCF=9391×g) for 3 min to recover the supernatant for analysis.\nReplicate analysis: Triplicate analytical replicate (ARs) samples were prepared similarly to the standards for each sample type at three concentrations (50, 500 and 2,000 ng/ml) and repeat injections of these ARs were included throughout the analytical run to assess assay performance. The extraction of the test compound from the standards and ARs were conducted as described above."}, "[5]": {"details": "0.083 h, IP 10 mg/kg, individual mouse, 10 mg/kg"}, "[6]": {"details": "0.5 h, IP 10 mg/kg, individual mouse, 10 mg/kg"}, "[7]": {"details": "4 h, IP 10 mg/kg, individual mouse, 10 mg/kg"}, "[8]": {"details": "mouse, plasma, male C57BL/6 mice, IP 10 mg/kg"}}, "note": "“And” between values parts separate entries of the source, which are not always exact repeats. Equal entries are not always repeated. Where two headings read alike, the source gives them in different places.", "data": [{"smiles": "CCN(C)CCc1c[nH]c2cc(C)c(OC)cc12", "note": "[Example P-42, N-ethyl-2-(5-methoxy-6-methyl-1H-indol-3-yl)-N-methylethan-1-amine]", "values": [{"measurement": "Emax", "setting": "[1]", "result": 88.2, "unit": "%"}, {"measurement": "EC50", "setting": "[1]; read-out: 5-HT2A EC50", "result": 26.5, "unit": "nM"}, {"measurement": "Emax", "setting": "[2]", "result": 85.8, "unit": "%"}, {"measurement": "EC50", "setting": "[2]; read-out: 5-HT2C EC50", "result": 68.5, "unit": "nM"}, {"measurement": "Emax", "setting": "[3]", "result": 8.39, "unit": "%"}, {"measurement": "EC50", "setting": "[3]; read-out: 5-HT2B EC50", "result": "> 10000", "unit": "nM"}, {"measurement": "B:P Ratio, Individual", "setting": "[4]; [5]", "result": "3.8 and 7.1 and 2.0"}, {"measurement": "Plasma Concentration, Individual", "setting": "[4]; [5]", "result": "1760 nM and 3440 nM"}, {"measurement": "concentration at 0.5 h", "setting": "[4]; 0.083 h, IP 10 mg/kg, individual mouse, 10 mg/kg, read-out: Brain Parenchyma Concentration, Individual", "result": "12600 nM and 7010 nM"}, {"measurement": "B:P Ratio, Individual", "setting": "[4]; [6]", "result": "20 and 11"}, {"measurement": "Plasma Concentration, Individual", "setting": "[4]; [6]", "result": "1880 nM and 1820 nM"}, {"measurement": "concentration at 0.5 h", "setting": "[4]; 0.5 h, IP 10 mg/kg, individual mouse, 10 mg/kg, read-out: Brain Parenchyma Concentration, Individual", "result": "37300 nM and 19900 nM"}, {"measurement": "B:P Ratio, Individual", "setting": "[4]; [7]", "result": "18 and 14 and 8.2"}, {"measurement": "Plasma Concentration, Individual", "setting": "[4]; [7]", "result": "38.4 nM and 20.9 nM"}, {"measurement": "concentration at 0.5 h", "setting": "[4]; 4 h, IP 10 mg/kg, individual mouse, 10 mg/kg, read-out: Brain Parenchyma Concentration, Individual", "result": "408 nM and 530 nM and 171 nM"}, {"measurement": "concentration at 0.083 h", "setting": "[4]; male, C57BL/6, mouse, brain, ip, 10 mg/kg, 0.083 h, individual mouse, read-out: Brain Parenchyma Concentration, Individual", "result": 10100, "unit": "nM"}, {"measurement": "concentration at 0.083 h", "setting": "[4]; male, C57BL/6, mouse, brain, ip, 10 mg/kg, 0.083 h, n = 3, read-out: Brain Parenchyma Concentration, Mean ± SD", "result": "9900 ± 2790", "unit": "nM"}, {"measurement": "concentration at 0.5 h", "setting": "[4]; male, C57BL/6, mouse, brain, ip, 10 mg/kg, 0.5 h, individual mouse, read-out: Brain Parenchyma Concentration, Individual", "result": 21300, "unit": "nM"}, {"measurement": "concentration at 0.5 h", "setting": "[4]; male, C57BL/6, mouse, brain, ip, 10 mg/kg, 0.5 h, n = 3, read-out: Brain Parenchyma Concentration, Mean ± SD", "result": "26200 ± 9680", "unit": "nM"}, {"measurement": "concentration at 4 h", "setting": "[4]; male, C57BL/6, mouse, brain, ip, 10 mg/kg, 4 h, n = 3, read-out: Brain Parenchyma Concentration, Mean ± SD", "result": "370 ± 182", "unit": "nM"}, {"measurement": "Kp at 0.083 h", "setting": "[4]; male, C57BL/6, mouse, brain/plasma, ip, 10 mg/kg, 0.083 h, n = 3, read-out: B:P Ratio, Mean ± SD", "result": "4.3 ± 2.6"}, {"measurement": "Kp at 0.5 h", "setting": "[4]; male, C57BL/6, mouse, brain/plasma, ip, 10 mg/kg, 0.5 h, individual mouse, read-out: B:P Ratio, Individual", "result": 18}, {"measurement": "Kp at 0.5 h", "setting": "[4]; male, C57BL/6, mouse, brain/plasma, ip, 10 mg/kg, 0.5 h, n = 3, read-out: B:P Ratio, Mean ± SD", "result": "16 ± 4.6"}, {"measurement": "Kp at 4 h", "setting": "[4]; male, C57BL/6, mouse, brain/plasma, ip, 10 mg/kg, 4 h, n = 3, read-out: B:P Ratio, Mean ± SD", "result": "13 ± 5"}, {"measurement": "concentration at 0.083 h", "setting": "[4]; male, C57BL/6, mouse, plasma, ip, 10 mg/kg, 0.083 h, individual mouse, read-out: Plasma Concentration, Individual", "result": 2650, "unit": "nM"}, {"measurement": "concentration at 0.083 h", "setting": "[4]; male, C57BL/6, mouse, plasma, ip, 10 mg/kg, 0.083 h, n = 3, read-out: Plasma Concentration, Mean ± SD", "result": "2620 ± 840", "unit": "nM"}, {"measurement": "concentration at 0.5 h", "setting": "[4]; male, C57BL/6, mouse, plasma, ip, 10 mg/kg, 0.5 h, individual mouse, read-out: Plasma Concentration, Individual", "result": 1200, "unit": "nM"}, {"measurement": "concentration at 0.5 h", "setting": "[4]; male, C57BL/6, mouse, plasma, ip, 10 mg/kg, 0.5 h, n = 3, read-out: Plasma Concentration, Mean ± SD", "result": "1640 ± 376", "unit": "nM"}, {"measurement": "concentration at 4 h", "setting": "[4]; male, C57BL/6, mouse, plasma, ip, 10 mg/kg, 4 h, individual mouse, read-out: Plasma Concentration, Individual", "result": 22.5, "unit": "nM"}, {"measurement": "concentration at 4 h", "setting": "[4]; male, C57BL/6, mouse, plasma, ip, 10 mg/kg, 4 h, n = 3, read-out: Plasma Concentration, Mean ± SD", "result": "27.3 ± 9.7", "unit": "nM"}, {"measurement": "Cmax", "setting": "[4]; [8]", "result": 2620, "unit": "nM"}, {"measurement": "Tmax", "setting": "[4]; [8]", "result": 4.98, "unit": "min"}, {"measurement": "AUC(0-inf)", "setting": "[4]; mouse, plasma, male C57BL/6 mice, IP 10 mg/kg, read-out: Plasma AUC0-inf", "result": 2.36, "unit": "µM·h"}, {"measurement": "half-life", "setting": "[4]; mouse, male C57BL/6 mice, IP 10 mg/kg, plasma, read-out: Apparent T1/2 (converted)", "result": 36, "unit": "min"}]}]}
